Reference: patent publication US20260109707A1, “HETEROBIFUNCTIONAL COMPOUNDS AND METHODS OF TREATING DISEASE” (Halda Therapeutics OpCo. Inc., priority 2022, published 2026)
Where two headings read alike, the source gives them in different places.

How the values were obtained:
[1] = tested on: T-Rex 293 cell line SC3 cells lacking increased expression of androgen receptor protein; assay: Cellular growth inhibition assay, T-Rex 293 SC3 cells without doxycycline (CellTiter-Glo, 72 hours); format: cell-based; settings: T-Rex 293 cell line SC3 cells not exposed to doxycycline (lacking increased androgen receptor expression)
In short: (§1)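 Growth inhibition is measured in an inducible AR-expressing T-Rex 293 clone, SC3, cultured with or without 10 ng/mL doxycycline in hormone-depleted medium. Test compounds are applied for 72 hours. GI50 values derive from CellTiter-Glo 2.0 signal fitted by four-parameter regression.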

[2] = tested on: VCaP cells; assay: Cellular growth inhibition assay for VCaP cells (CellTiter-Glo, 72 hours); format: cell-based, human
In short: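 Luminescent viability signal after 72 h of compound exposure gave GI50 values by four-parameter nonlinear regression. Compounds were added in 0.5% DMSO to cells plated 24 h earlier at 5000/well in DMEM containing 10% FBS.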

[3] = tested on: T-Rex 293 cell line SC3 cells having increased expression of androgen receptor protein due to exposure to doxycycline; assay: Cellular growth inhibition assay, T-Rex 293 SC3 cells with doxycycline (CellTiter-Glo, 72 hours); format: cell-based; settings: T-Rex 293 SC3 cells with increased androgen receptor expression due to doxycycline (10 ng/mL)
In short: as §1

[4] = tested on: T47D cells; assay: Cellular growth inhibition assay for T47D cells (CellTiter-Glo, 72 hours); format: cell-based, human; settings: 72 hours treatment
Method: T47D cells were purchased from American Type Cell Culture (ATCC Cat #HTB-133) and then seeded on poly-D-lysine coated, black clear-bottom 384-well plates at 3000/well in 25 μL Dulbecco's Modified Eagle Medium (DMEM) supplemented with 10% w/w Fetal bovine serum (FBS), 0.2 units/mL recombinant human insulin (Gibco Cat #12585014), and 1% w/w Pen-Strep. Pen-Strep is a commercially available mixture of penicillin G and streptomycin, which is used in mammalian cell culture media to prevent bacterial contamination. Dulbecco's Modified Eagle Medium (DMEM) supplemented with 10% w/w fetal bovine serum (FBS), 0.2 units/mL recombinant human insulin, and 1% w/w Pen-Strep is herein referred to as Treatment Medium. Following seeding of cells in the plates, the plates were spun at 300×g for 30 seconds, then equilibrated to room temperature for 30 minutes, and then deposited in a humidified tissue culture incubator maintained at 37° C. with 5% CO2.
At 24 hours after seeding of the cells, dilutions of test compound were prepared in DMSO and dissolved in Treatment Medium, to achieve a final DMSO concentration of 0.5% w/w, thereby providing the Test Compound Solution. A 25 μL aliquot of the Test Compound Solution was added to cells in the well plates. An equal volume of a solution containing DMSO and Treatment Medium was used as a negative control. Following treatment of cells with Test Compound Solution or said equal volume of a solution containing DMSO and Treatment Medium, the plates were spun at 300×g for 30 seconds, and then left in an incubator for 72 hours.
At the end of the treatment duration, cell viability was quantified with CellTiter-Glo 2.0 reagent (Promega Cat #G9243). For this purpose, plates were equilibrated to room temperature for 30 minutes, and then 25 μL of CellTiter-Glo 2.0 reagent was added to cells in the plate wells. Plates were then agitated on a shaker for two minutes at 500 rpm and subsequently incubated at room temperature for 10 minutes. Following incubation, the plates were spun at 3000×g for 30 seconds, then sealed with an optical adhesive cover, and luminescence readings were measured with an EnVision Plate Reader (Perkin Elmer).
Data was normalized using zero luminescence for baseline. A four-parameter non-linear regression curve fit was applied to dose-response data in GraphPad Prism data analysis software to determine the half-maximal growth inhibitory concentration (GI50) for each test compound.

Row | Compound | GI50 ([1]; 72 h) [nM] | GI50 ([2]; Homo sapiens, VCaP, 72 h) [nM] | GI50 ([3]; 72 h) [nM] | GI50 ([4]; Homo sapiens, T47D, 72 h) [nM] | GI50 [1] [nM] | GI50 [2] [nM] | GI50 [3] [nM] | GI50 [4] [nM]
1 | Cc1sc2c(c1C)C(c1ccc(C#CC3CC4(C3)CN(c3ccc(C(=O)N[C@H]5CC[C@H](Oc6ccc(C#N)c(Cl)c6)CC5)nn3)C4)nc1)=N[C@H](Cc1ncco1)c1nnc(C)n1-2 [I-322] | < 500 | < 500 | < 500 | < 500 | – | – | – | –
2 | CCNC(=O)C[C@@H]1N=C(c2ccc(N3CCN(C4CN(c5ccc(C(=O)N[C@H]6CC[C@H](Oc7ccc(C#N)c(Cl)c7)CC6)nn5)C4)CC3)cc2)c2c(sc(C)c2C)-n2c(C)nnc21 [I-41] | 500 to 1500 | < 500 | < 500 | < 500 | – | – | – | –
3 | Cc1sc2c(c1C)C(c1ccc(C#CC3CC4(C3)CN(c3ccc(C(=O)N[C@H]5CC[C@H](Oc6ccc(C#N)c(Cl)c6)CC5)nn3)C4)cc1)=NC1(CC1)c1nnc(C)n1-2 [I-418] | < 500 | < 500 | < 500 | < 500 | – | – | – | –
4 | Cc1sc2c(c1C)C(c1ccc(OC3CC4(C3)CN(c3ccc(C(=O)N[C@H]5CC[C@H](Oc6ccc(C#N)c(Cl)c6)CC5)nn3)C4)cc1)=N[C@@H](Cc1ncco1)c1nnc(C)n1-2 [I-91] | < 500 | < 500 | < 500 | < 500 | – | – | – | –
5 | Cc1sc2c(c1C)C(c1ccc(N3CCC4(CC3)CCN(c3ccc(C(=O)N[C@H]5CC[C@H](Oc6ccc(C#N)c(Cl)c6)CC5)nn3)C4)cc1)=NC1(CC1)c1nnc(C)n1-2 [I-399] | 500 to 1500 | < 500 | < 500 | 1500 to 3000 | – | – | – | –
6 | Cc1sc2c(c1C)C(c1ccc(O[C@H]3C[C@]4(CCCN(c5ccc(C(=O)N[C@H]6CC[C@H](Oc7ccc(C#N)c(Cl)c7)CC6)nn5)C4)C3)cc1)=N[C@@H](C)c1nnc(C)n1-2 [I-350] | > 3000 | < 500 | < 500 | 500 to 1500 | – | – | – | –
7 | CCNC(=O)C[C@@H]1N=C(c2ccc(N3CC(N4CCN(c5ccc(C(=O)N[C@H]6CC[C@H](Oc7ccc(C#N)c(Cl)c7)CC6)nn5)CC4)C3)cc2)c2c(sc(C)c2C)-n2c(C)nnc21 [I-40] | 500 to 1500 | < 500 | < 500 | 500 to 1500 | – | – | – | –
8 | Cc1sc2c(c1C)C(c1ccc([C@H]3CC[C@]4(C3)CN(c3ccc(C(=O)N[C@H]5CC[C@H](Oc6ccc(C#N)c(Cl)c6)CC5)nn3)CCO4)cc1)=N[C@@H](Cc1ncco1)c1nnc(C)n1-2 [I-363] | > 3000 | > 3000 | > 3000 | > 3000 | – | – | – | –
9 | Cc1sc2c(c1C)C(c1ccc(CC3CC(C4CCCN(c5ccc(C(=O)N[C@H]6CC[C@H](Oc7ccc(C#N)c(Cl)c7)CC6)nn5)C4)C3)cc1)=N[C@@H](Cc1ncco1)c1nnc(C)n1-2 (stereo partly drawn) [I-122] | < 500 | < 500 | < 500 | < 500 | – | – | – | –
10 | Cc1sc2c(c1C)C(c1ccc(C[C@H]3C[C@]4(CCCN(c5ccc(C(=O)N[C@H]6CC[C@H](Oc7ccc(C#N)c(Cl)c7)CC6)nn5)C4)C3)cc1)=N[C@@H](C)c1nnc(C)n1-2 [I-352] | > 3000 | < 500 | < 500 | > 3000 | – | – | – | –
11 | Cc1sc2c(c1C)C(c1ccc(CNC(=O)NCc3ccc(C(=O)N[C@H]4CC[C@H](Oc5ccc(C#N)c(Cl)c5)CC4)nn3)cc1)=N[C@@H](Cc1ncco1)c1nnc(C)n1-2 [I-289] | > 3000 | 1500 to 3000 | < 500 | 1500 to 3000 | – | – | – | –
12 | Cc1sc2c(c1C)C(c1ccc(CCC3CCN(c4ccc(C(=O)NC5CCC(Oc6ccc(C#N)c(Cl)c6)CC5)nn4)CC3)cc1)=N[C@@H](Cc1ncco1)c1nnc(C)n1-2 (stereo partly drawn) [I-74, N-[4-(3-chloro-4-cyano-phenoxy)cyclohexyl]-6-[4-[2-[4-[(9S)-4,5,13-trimethyl-9-(oxazol-2-ylmethyl)-3-thia-1,8,11,12-tetrazatricyclo[8.3.0.02,6]trideca-2(6),4,7,10,12-pentaen-7-yl]phenyl]ethyl]-1-piperidyl]pyridazine-3-carboxamide] | < 500 | < 500 | < 500 | < 500 | – | – | – | –
13 | Cc1sc2c(c1C)C(c1ccc(C(=O)N3CCN(Cc4ccc(C(=O)N[C@H]5CC[C@H](Oc6ccc(C#N)c(Cl)c6)CC5)nn4)CC3)cc1)=N[C@H](Cc1ncco1)c1nnc(C)n1-2 [I-291] | > 3000 | > 3000 | < 500 | > 3000 | – | – | – | –
14 | Cc1sc2c(c1C)C(c1ccc(O[C@H]3C[C@@]4(CCCN(c5ccc(C(=O)N[C@H]6CC[C@H](Oc7ccc(C#N)c(Cl)c7)CC6)nn5)C4)C3)cc1)=N[C@@H](C)c1nnc(C)n1-2 [I-349] | > 3000 | 500 to 1500 | < 500 | 500 to 1500 | – | – | – | –
15 | Cc1sc2c(c1C)C(c1ccc(O[C@H]3C[C@@H](N(C(C)C)C4CCN(c5ccc(C(=O)N[C@H]6CC[C@H](Oc7ccc(C#N)c(Cl)c7)CC6)nn5)CC4)C3)cc1)=N[C@@H](Cc1ncco1)c1nnc(C)n1-2 [I-246] | < 500 | < 500 | < 500 | < 500 | – | – | – | –
16 | Cc1sc2c(c1C)C(c1ccc(OC[C@@H]3CCCN(c4ccc(C(=O)N[C@H]5CC[C@H](Oc6ccc(C#N)c(Cl)c6)CC5)nn4)C3)cc1)=N[C@@H](Cc1ncco1)c1nnc(C)n1-2 [I-218] | < 500 | < 500 | < 500 | 500 to 1500 | – | – | – | –
17 | CCNC(=O)C[C@@H]1N=C(c2ccc(N3CCC(CN4CCN(c5ccc(C(=O)N[C@H]6CC[C@H](Oc7ccc(C#N)c(Cl)c7)CC6)nn5)CC4)CC3)cc2)c2c(sc(C)c2C)-n2c(C)nnc21 [I-36] | 500 to 1500 | < 500 | < 500 | 500 to 1500 | – | – | – | –
18 | Cc1sc2c(c1C)C(c1ccc(C[C@H]3C[C@@H](C4CCCN(c5ccc(C(=O)N[C@H]6CC[C@H](Oc7ccc(C#N)c(Cl)c7)CC6)nn5)C4)C3)cc1)=N[C@@H](Cc1ncco1)c1nnc(C)n1-2 (stereo partly drawn) [I-120] | > 3000 | > 3000 | < 500 | < 500 | – | – | – | –
19 | Cc1sc2c(c1C)C(c1ccc(OC[C@H]3C[C@@]4(CCCN(c5ccc(C(=O)N[C@H]6CC[C@H](Oc7ccc(C#N)c(Cl)c7)CC6)nn5)C4)C3)cc1)=N[C@@H](Cc1ncco1)c1nnc(C)n1-2 [I-105] | < 500 | < 500 | < 500 | < 500 | – | – | – | –
20 | CCNC(=O)C[C@@H]1N=C(c2ccc(OCCN(C)c3ccc(C(=O)N[C@H]4CC[C@H](Oc5ccc(C#N)c(Cl)c5)CC4)nn3)cc2)c2c(sc(C)c2C)-n2c(C)nnc21 [I-49] | 500 to 1500 | < 500 | < 500 | 500 to 1500 | – | – | – | –
21 | Cc1sc2c(c1C)C(c1ccc(CCC3CCC4CN(c5ccc(C(=O)N[C@H]6CC[C@H](Oc7ccc(C#N)c(Cl)c7)CC6)nn5)CCN4C3)cc1)=NC(Cc1ncco1)c1nnc(C)n1-2 (stereo partly drawn) [I-404] | – | – | – | – | < 500 | < 500 | < 500 | < 500
22 | Cc1sc2c(c1C)C(c1ccc(O[C@H]3CC[C@]4(CCCN(c5ccc(C(=O)N[C@H]6CC[C@H](Oc7ccc(C#N)c(Cl)c7)CC6)nn5)C4)C3)cc1)=N[C@@H](Cc1ncco1)c1nnc(C)n1-2 [I-97] | < 500 | < 500 | < 500 | < 500 | – | – | – | –
23 | Cc1sc2c(c1C)C(c1ccc(CN3CC(=O)N4C[C@H](c5ccc(C(=O)N[C@H]6CC[C@H](Oc7ccc(C#N)c(Cl)c7)CC6)nn5)C[C@H]4C3=O)cc1)=N[C@@H](Cc1ncco1)c1nnc(C)n1-2 [I-343] | > 3000 | 1500 to 3000 | < 500 | > 3000 | – | – | – | –
24 | Cc1sc2c(c1C)C(c1ccc(C[C@H]3C[C@H]([C@H]4CCCN(c5ccc(C(=O)N[C@H]6CC[C@H](Oc7ccc(C#N)c(Cl)c7)CC6)nn5)C4)C3)cc1)=N[C@@H](Cc1ncco1)c1nnc(C)n1-2 [I-131] | < 500 | < 500 | < 500 | 500 to 1500 | – | – | – | –
